Measurements: patent US6982348B2, “Aminoethanol derivatives” (Takeda Pharmaceutical Company Limited, priority 2001, dated 2006)
Where a name gives a salt, the structure may show the parent alone.

With `COC(=O)CCC(=O)O[C@H](c1ccc(F)cc1)[C@H](Cc1cccc(OC(F)(F)C(F)F)c1)NC(=O)c1cccc2c1C=CCCC2` (racemic) (as salt: succinate) [Example 383, (1RS,2SR)-2-[(6,7-dihydro-5H-benzo[a]cyclohepten-1-ylcarbonyl)amino]-1-(4-fluorophenyl)-3-[3-(1,1,2,2-tetrafluoroethoxy)phenyl]propyl methyl succinate] the melting point was 170 to 171 °C.
With `O=C(O)CCC(=O)O[C@H](c1ccc(F)cc1)[C@H](Cc1cccc(OC(F)(F)C(F)F)c1)NC(=O)c1cccc2c1C=CCCC2` (racemic) (as salt: succinate) [Example 384, (1RS,2SR)-2-[(6,7-dihydro-5H-benzo[a]cyclohepten-1-ylcarbonyl)amino]-1-(4-fluorophenyl)-3-[3-(1,1,2,2-tetrafluoroethoxy)phenyl]propyl hydrogen succinate] the melting point was 154 to 155 °C.
For `O=C(O)CCC(=O)O[C@H](c1ccc(F)cc1)[C@H](Cc1cccc(OC(F)(F)C(F)F)c1)NC(=O)c1ccc(F)c2ccccc12` (racemic) (as salt: succinate) [Example 388, (1RS,2SR)-2-[(4-fluoro-1-naphthoyl)amino]-1-(4-fluorophenyl)-3-[3-(1,1,2,2-tetrafluoroethoxy)phenyl]propyl hydrogen succinate], the melting point was 181 to 182 °C.
Molecule `O=C(O)CCC(=O)O[C@H](c1ccc(F)cc1)[C@H](Cc1ccc(C(F)(F)F)cc1)NC(=O)c1cccc2c(Cl)cccc12` (racemic) (as salt: succinate) [Example 394, (1RS,2SR)-2-[(5-chloro-1-naphthoyl)amino]-1-(4-fluorophenyl)-3-[4-(trifluoromethyl)phenyl]propyl hydrogen succinate] has a melting point of 228 to 229 °C.
In the case of `O=C(O)CCC(=O)O[C@H](c1ccc(F)cc1)[C@H](Cc1ccc2c(c1)OC(F)(F)C(F)(F)O2)NC(=O)c1ccc(F)c2ccccc12` (racemic) (as salt: succinate) [Example 396, (1RS,2SR)-1-(4-fluorophenyl)-2-[(4-fluoro-1-naphthoyl)amino]-3-(2,2,3,3-tetrafluoro-2,3-dihydro-1,4-benzodioxin-6-yl)propyl hydrogen succinate], the melting point was 196 to 197 °C.
`O=C(NC(Cc1ccc(C(F)(F)F)cc1)C(O)c1ccc(F)cc1)c1cccc2ccccc12` (racemic) [Example 1, N-[2-(4-fluorophenyl)-2-hydroxy-1-[[4-(trifluoromethyl)phenyl]methyl]ethyl]-1-naphthalenecarboxamide] gave a melting point of 159 to 181 °C.
`Cc1ccc(C(=O)NC(Cc2ccc(C(F)(F)F)cc2)C(O)c2ccc(F)cc2)c2ccccc12` (racemic) [Example 2, N-(2-(4-fluorophenyl)-2-hydroxy-1-((4-(trifluoromethyl)phenyl)methyl)ethyl)-4-methyl-1-naphthalenecarboxamide] showed a melting point of 149 to 150 °C.
Molecule `O=C(CCCc1cccs1)NC(Cc1ccc(C(F)(F)F)cc1)C(O)c1ccc(F)cc1` (racemic) [Example 4, N-(2-(4-fluorophenyl)-2-hydroxy-1-((4-(trifluoromethyl)phenyl)methyl)ethyl)-4-(2-thienyl)butyramide] has a melting point of 123 to 124 °C.
`O=C(NC(Cc1ccc(C(F)(F)F)cc1)C(O)c1ccc(F)cc1)C1CCCC1` (racemic) [Example 5, N-[2-(4-fluorophenyl)-2-hydroxy-1-[[4-(trifluoromethyl)phenyl]methyl]ethyl]cyclopentanecarboxamide] gave a melting point of 139 to 155 °C.
In the case of `O=C(NC(Cc1ccc(C(F)(F)F)cc1)C(O)c1ccc(F)cc1)c1ccc(F)cc1` (racemic) [Example 6, 4-fluoro-N-[2-(4-fluorophenyl)-2-hydroxy-1-[[4-(trifluoromethyl)phenyl]methyl]ethyl]benzamide], the melting point was 155 to 179 °C.
In the case of `COc1ccc(C(=O)NC(Cc2ccc(C(F)(F)F)cc2)C(O)c2ccc(F)cc2)cc1` (racemic) [Example 7, N-[2-(4-fluorophenyl)-2-hydroxy-1-[[4-(trifluoromethyl)phenyl]methyl]ethyl]-4-methoxybenzamide], the melting point was 174 to 176 °C.
With `O=C(NC(Cc1ccc(C(F)(F)F)cc1)C(O)c1ccc(F)cc1)C1CCCCC1` (racemic) [Example 8, N-[2-(4-fluorophenyl)-2-hydroxy-1-[[4-(trifluoromethyl)phenyl]methyl]ethyl]cyclohexanecarboxamide] the melting point was 161 to 178 °C.
Molecule `O=C(NC(Cc1ccc(C(F)(F)F)cc1)C(O)c1ccc(F)cc1)c1ccc(Cl)cc1` (racemic) [Example 9, 4-chloro-N-[2-(4-fluorophenyl)-2-hydroxy-1-[[4-(trifluoromethyl)phenyl]methyl]ethyl]benzamide] has a melting point of 170 to 180 °C.
In the case of `O=C(NC(Cc1ccc(C(F)(F)F)cc1)C(O)c1ccc(F)cc1)c1ccccc1-c1ccccc1` (racemic) [Example 10, N-[2-(4-fluorophenyl)-2-hydroxy-1-[[4-(trifluoromethyl)phenyl]methyl]ethyl]-2-phenylbenzamide], the melting point was 133 to 134 °C.
`O=C(NC(Cc1ccc(C(F)(F)F)cc1)C(O)c1ccc(F)cc1)c1cccs1` (racemic) [Example 11, N-[2-(4-fluorophenyl)-2-hydroxy-1-[[4-(trifluoromethyl)phenyl]methyl]ethyl]-2-thiophenecarboxamide] gave a melting point of 135 to 164 °C.
`O=C(NC(Cc1ccc(C(F)(F)F)cc1)C(O)c1ccc(F)cc1)c1ccc(C(F)(F)F)cc1` (racemic) [Example 12, N-[2-(4-fluorophenyl)-2-hydroxy-1-[[4-(trifluoromethyl)phenyl]methyl]ethyl]-4-(trifluoromethyl)benzamide] showed a melting point of 167 to 169 °C.
Work on `CCCCc1ccc(C(=O)NC(Cc2ccc(C(F)(F)F)cc2)C(O)c2ccc(F)cc2)cc1` (racemic) [Example 13, 4-butyl-N-[2-(4-fluorophenyl)-2-hydroxy-1-[[4-(trifluoromethyl)phenyl]methyl]ethyl]benzamide] yielded a melting point of 138 to 158 °C.
`O=C(NC(Cc1ccc(C(F)(F)F)cc1)C(O)c1ccc(F)cc1)c1ccc2ccccc2c1` (racemic) [Example 14, N-[2-(4-fluorophenyl)-2-hydroxy-1-[[4-(trifluoromethyl)phenyl]methyl]ethyl]-2-naphthalenecarboxamide] gave a melting point of 148 to 150 °C.
Molecule `O=C(NC(Cc1ccc(C(F)(F)F)cc1)C(O)c1ccc(F)cc1)C12CC3CC(CC(C3)C1)C2` (racemic) [Example 15, N-[2-(4-fluorophenyl)-2-hydroxy-1-[[4-(trifluoromethyl)phenyl]methyl]ethyl]adamantane-1-carboxamide] has a melting point of 169 to 170 °C.
`CC(C)(C)C(=O)NC(Cc1ccc(C(F)(F)F)cc1)C(O)c1ccc(F)cc1` (racemic) [Example 16, N-[2-(4-fluorophenyl)-2-hydroxy-1-[[4-(trifluoromethyl)phenyl]methyl]ethyl]-2,2-dimethylpropionamide] gave a melting point of 97 to 99 °C.
`Cc1cc(C)c(C(=O)NC(Cc2ccc(C(F)(F)F)cc2)C(O)c2ccc(F)cc2)c(C)c1` (racemic) [Example 17, N-[2-(4-fluorophenyl)-2-hydroxy-1-[[4-(trifluoromethyl)phenyl]methyl]ethyl]-2,4,6-trimethylbenzamide] showed a melting point of 141 to 143 °C.
Work on `O=C(NC(Cc1ccc(C(F)(F)F)cc1)C(O)c1ccc(F)cc1)c1ccccc1F` (racemic) [Example 18, 2-fluoro-N-[2-(4-fluorophenyl)-2-hydroxy-1-[[4-(trifluoromethyl)phenyl]methyl]ethyl]benzamide] yielded a melting point of 115 to 117 °C.
For `CC(C)(C)c1ccc(C(=O)NC(Cc2ccc(C(F)(F)F)cc2)C(O)c2ccc(F)cc2)cc1` (racemic) [Example 19, 4-tert-butyl-N-[2-(4-fluorophenyl)-2-hydroxy-1-[[4-(trifluoromethyl)phenyl]methyl]ethyl]benzamide], the melting point was 58 °C.
Work on `O=C(NC(Cc1ccc(C(F)(F)F)cc1)C(O)c1ccc(F)cc1)c1ccc(-c2ccccc2)cc1` (racemic) [Example 20, N-[2-(4-fluorophenyl)-2-hydroxy-1-[[4-(trifluoromethyl)phenyl]methyl]ethyl]-4-phenylbenzamide] yielded a melting point of 178 to 185 °C.
With `O=C(NC(Cc1ccc(C(F)(F)F)cc1)C(O)c1ccc(F)cc1)c1cccnc1` (racemic) [Example 21, N-[2-(4-fluorophenyl)-2-hydroxy-1-[[4-(trifluoromethyl)phenyl]methyl]ethyl]-3-pyridinecarboxamide] the melting point was 160 to 165 °C.
In the case of `CC(C)(C)OC(=O)N[C@H](Cc1ccc(C(F)(F)F)cc1)[C@H](O)c1ccc(F)cc1` (racemic) [Example 24, 1,1-dimethylethyl(1RS,2RS)-2-(4-fluorophenyl)-2-hydroxy-1-((4-(trifluoromethyl)phenyl)methyl)ethylcarbamate], the melting point was 95 to 96 °C.
In the case of `CCOc1ccc2ccccc2c1C(=O)N[C@H](Cc1ccc(C(F)(F)F)cc1)[C@H](O)c1ccc(F)cc1` (racemic) [Example 25, 2-(ethyloxy)-N-((1RS,2RS)-2-(4-fluorophenyl)-2-hydroxy-1-((4-(trifluoromethyl)phenyl)methyl)ethyl)-1-naphthalenecarboxamide], the melting point was 186 to 187 °C.
Molecule `O=C(N[C@H](Cc1ccc(C(F)(F)F)cc1)[C@H](O)c1ccc(F)cc1)c1cccc2ccccc12` (racemic) [Example 26, N-((1RS,2RS)-2-(4-fluorophenyl)-2-hydroxy-1-((4-(trifluoromethyl)phenyl)methyl)ethyl)-1-naphthalenecarboxamide] has a melting point of 134 to 135 °C.
For `O=C(N[C@H](Cc1ccc(C(F)(F)F)cc1)[C@H](O)c1ccc(F)cc1)c1ccc(C(F)(F)F)cc1` (racemic) [Example 27, N-((1RS,2RS)-2-(4-fluorophenyl)-2-hydroxy-1-((4-(trifluoromethyl)phenyl)methyl)ethyl)-4-(trifluoromethyl)benzamide], the melting point was 162 to 163 °C.
`CC(C)(C)OC(=O)N[C@H](Cc1ccc(C(F)(F)F)cc1)[C@@H](O)c1ccc(F)cc1` (racemic) [Example 28, 1,1-dimethylethyl (1RS,2SR)-2-(4-fluorophenyl)-2-hydroxy-1-((4-(trifluoromethyl)phenyl)methyl)ethylcarbamate] gave a melting point of 158 to 159 °C.
